Measured values reported in US5248673A, “Bisamidine derivatives as thrombin inhibitors” (Bristol-Myers Squibb Co., priority 1992, dated 1993).
Structures can show the parent of a compound that is named as a salt. Where two headings read alike, the source gives them in different places.

How the values were obtained:
[1] = biological target: T1, human α-thrombin (Homo sapiens, UniProt P00734); test: Enzyme assay for the inhibition of thrombin (s-2238 chromogenic substrate); type: biochemical; details: Table I, determined graphically from Dixon plots, room temperature, pH 7.4, substrate s-2238
T1 construct: purified human α-thrombin
Experimental: Enzyme Assays for the Inhibition of Thrombin The following reagents were used in these assays: […] Inhibitors to be tested were dissolved in H2 O, methanol, or DMSO just prior to use. To each well in a 96-well microtiter plate, 270 μl of assay buffer was added. […] The samples were incubated at room temperature for a defined period of time (3 minutes for initial IC50 determinations). The enzymatic reaction was started with 10 μl of 3 mM s-2238 substrate and continued at room temperature. The change in optical density was measured at 405 nm. A kinetic microplate reader (Molecular Devices Corporation .nu.max) was used to measure the change in optical density over time. Table I lists the Ki values for different compounds, Ki value is determined graphically from Dixon plots (plots of reciprocal enzyme velocity i/v vs. linear function of inhibitor concentration at various enzyme substrate concentrations). This methodology is well known in the art.

[2] = biological target: T1, human α-thrombin; test: Concentration required for doubling thrombin clotting time (clotting time assay in human plasma); type: biochemical; details: Table II; human citrated plasma, 10 U/ml human thrombin; read-out: DTT (concentration of drug which caused a doubling of the thrombin clotting time)
Experimental: Procedure for Determining the Concentration Required for Doubling Thrombin Clotting Time--Clotting Time Assays
The following reagents were used in these assays:
The blood was centrifugated at […]. The plasma was removed, pooled, and aliquoted into small tubes which were stored frozen for later use.
Clotting times were determined by pipetting 0.1 ml of Owren's buffer (pre-warmed to 37° C.) and 0.1 ml of human or rat plasma into yellow sample cuvettes. For studies with human plasma 10 U/ml human thrombin (10 ml) was placed in the reservoir assembly station of the MLA 700. (Medical Laboratory Automation, Electra 700 Reservoir Assembly). For rat studies, the human thrombin concentration was 25 U/ml. The cuvettes were vortexed and then placed on the MLA 700 sample wheel. The coagulation timer (MLA 700) automatically dispenses 0.1 ml human thrombin into the sample in each cuvette. Detection of the fibrin clot was determined optically by the MLA 700.
Studies were performed to determine the concentration of drug which caused a doubling of the clotting time (DTT) in human plasma.

| SMILES | Ki ([1]; read-out: Ki) | IC (2-fold clotting time) [2] | Ki [1] |
| --- | --- | --- | --- |
| N=C(N)C(=N)NCCC(NC(=O)CNS(=O)(=O)c1ccc2ccccc2c1)C(=O)N1CCCCC1 (stereo not drawn) [Compound 7m] | 36 µM | – | – |
| Cc1ccc(S(=O)(=O)NC(CCNC(=N)C(=N)N)C(=O)N2CCCCC2)cc1 (stereo not drawn) [Compound 7i] | 80 µM | – | – |
| CN(C)c1cccc2c(S(=O)(=O)NC(CCCNC(=N)C(=N)N)C(=O)N3CCOCC3)cccc12 (stereo not drawn) [Compound 7e, 1-[5-[(2-amino-1,2-diiminoethyl)amino]-2-[[[5-(dimethylamino)-1-naphthalenyl]sulfonyl]amino]-1-oxopentyl]morpholine trihydrochloride hydrate] | 2 µM | 4 µM | – |
| Cc1ccc(S(=O)(=O)NC(CCCCNC(=N)C(=N)N)C(=O)N2CCCCC2)cc1 (stereo not drawn) [Compound 7k, 1-[6-[(2-amino-1,2-diiminoethyl)aminol]-2-[[(4-methylphenyl)sulfonyl]amino]-1-oxohexyl]piperidine dihydrochloride] | 55 µM | 150 µM | – |
| CN(C)c1cccc2c(S(=O)(=O)NC(CCCNC(=N)C(=N)N)C(=O)N3CCCCCC3)cccc12 (stereo not drawn) [Compound 7g, 1-[5-(2-amino-1,2-diiminoethyl)amino]-2-[[[5-(dimethylamino)-1-naphthalenyl]sulfonyl]amino]-1-oxopentyl]homopiperidine trihydrochloride hydrate] | 0.4 µM | 1.8 µM | – |
| Cc1ccc(S(=O)(=O)NC(CNC(=N)C(=N)N)C(=O)N2CCCCC2)cc1 (stereo not drawn) [Compound 7h] | – | > 300 µM | insol. |
| CC1CCN(C(=O)C(CCNC(=N)C(=N)N)NS(=O)(=O)c2cccc3c(N(C)C)cccc23)CC1 (stereo not drawn) [Compound 7b] | 4 µM | – | – |
| N=C(N)C(=N)NCCCC(NC(=O)CNS(=O)(=O)c1ccc2ccccc2c1)C(=O)N1CCCCC1 (stereo not drawn) [Compound 7n] | > 50 µM | – | – |
| CCC1CCN(C(=O)C(CCCNC(=N)C(=N)N)NS(=O)(=O)c2cccc3c(N(C)C)cccc23)CC1 (stereo not drawn) [Compound 7d, 1-[5-[(2-amino-1,2-diiminoethyl)amino]-2-[[[5-(dimethylamino)-1-naphthalenyl]sulfonyl]amino]-1-oxopentyl]-4-ethylpiperidine trihydrochloride hydrate] | 0.3 µM | – | – |
| CC1CCN(C(=O)C(CCCNC(=N)C(=N)N)NS(=O)(=O)c2cccc3c(N(C)C)cccc23)CC1 (stereo not drawn) [Compound 7c, 1-[5-[(2-amino-1,2-diiminoethyl)amino]-2-[[[5-(dimethylamino)-1-naphthalenyl]sulfonyl]amino]-1-oxopentyl]-4-methylpiperidine trihydrochloride hydrate] | 0.33 µM | – | – |
| Cc1ccc(S(=O)(=O)NC(CCCNC(=N)C(=N)N)C(=O)N2CCC(C)CC2)cc1 (stereo not drawn) [Compound 7l, 1-[5-[2-(amino-1,2-diiminoethyl)amino]-2-[[(4-methylphenyl)sulfonyl]amino]-1-oxopentyl]-4-methylpiperidine hydrochloride] | 18 µM | – | – |
| Cc1ccc(S(=O)(=O)NC(CCCNC(=N)C(=N)N)C(=O)N2CCCCC2)cc1 (stereo not drawn) [Compound 7j] | 16 µM | – | – |
| CN(C)c1cccc2c(S(=O)(=O)NC(CCCNC(=N)C(=N)N)C(=O)N3CCCCC3)cccc12 (stereo not drawn) [Compound 7a, 1-[5-[(2-amino-1,2-diminoethyl)amino]-2-[[[5-(dimethylamino)-1-naphthalene]amino]-1-oxopentyl]piperidine hydrochloride] | 3.2 µM | – | – |
| CCCCN(CC(=O)OCC)C(=O)C(CCCNC(=N)C(=N)N)NS(=O)(=O)c1cccc2c(N(C)C)cccc12 (stereo not drawn) [Compound 7f, ethyl N-[5-[(2-amino-1,2-diiminoethyl)amino]-2-[[[5-(dimethylamino)-1-naphthalenyl]sulfonyl]amino]-1-oxopentyl]-N-butylglycinate trihydrochloride hydrate] | 3 µM | – | – |
